Assay results: PubChem BioAssay AID248 (DTP/NCI, 2004)
“And” between values parts separate entries of the source, which are not always exact repeats. Equal values may be shown once. Inconclusive results and toxic doses are left out. Rule as the data show it: active = T/C of 150% or more; inactive = T/C below 125%.

Test system: L1210 leukemia ip in BDF1 mice, survival T/C
Assay: NCI In Vivo Anticancer Drug Screen. Data for tumor model L1210 Leukemia (intraperitoneal) in B6D2F1 (BDF1) mice
Details: endpoint: mean survival time, higher = longer survival
Procedure, shortened: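 Read-out is survival time, reported as the treated-group measurement over the vehicle-control measurement.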

[1] = dose: 100.0 mg/kg/injection, schedule: Q04DX002 (ip), vehicle: saline with Tween-80
[2] = dose: 200.0 mg/kg/injection, schedule: Q04DX002 (ip), vehicle: saline with Tween-80
[3] = dose: 400.0 mg/kg/injection, schedule: Q04DX002 (ip), vehicle: saline with Tween-80
[4] = dose: 25.0 mg/kg/injection, schedule: Q01DX009 (ip), vehicle: saline with Tween-80
[5] = dose: 50.0 mg/kg/injection, schedule: Q01DX009 (ip), vehicle: saline with Tween-80
[6] = dose: 50.0 mg/kg/injection, schedule: Q04DX003 (ip), vehicle: saline with Tween-80
[7] = dose: 100.0 mg/kg/injection, schedule: Q01DX009 (ip), vehicle: saline with Tween-80
[8] = dose: 100.0 mg/kg/injection, schedule: Q04DX003 (ip), vehicle: saline with Tween-80
[9] = dose: 100.0 mg/kg/injection, schedule: Q01DX009 (ip), vehicle: Klucel (hydroxypropylcellulose) (HPC)
[10] = dose: 200.0 mg/kg/injection, schedule: Q01DX009 (ip), vehicle: Klucel (hydroxypropylcellulose) (HPC)
[11] = dose: 100.0 mg/kg/injection, schedule: Q04DX003 (ip), vehicle: Klucel (hydroxypropylcellulose) (HPC)
[12] = dose: 200.0 mg/kg/injection, schedule: Q04DX003 (ip), vehicle: Klucel (hydroxypropylcellulose) (HPC)
[13] = dose: 400.0 mg/kg/injection, schedule: Q04DX003 (ip), vehicle: Klucel (hydroxypropylcellulose) (HPC)

Measured: T/C

O=c1oc2c(Cl)cc(Cl)cc2cc1-c1nc2ccccc2[nH]1
inactive: [1] 100 % of control | [2] 93 % of control | [3] 96 % of control

CCOc1cc(/C=N/NC(=S)NC23CC4CC(CC(C4)C2)C3)ccc1O
inactive: dose: 75.0 mg/kg/injection, schedule: Q01DX001 (ip), vehicle: acetone 101 % of control | dose: 150.0 mg/kg/injection, schedule: Q01DX001 (ip), vehicle: acetone 92 % of control | dose: 300.0 mg/kg/injection, schedule: Q01DX001 (ip), vehicle: acetone 94 % of control

CCCCCCCCCC(Br)C(C)(C)COO (centres undefined)
inactive: dose: 50.0 mg/kg/injection, schedule: Q01DX001 (ip), vehicle: water 97 % of control | dose: 100.0 mg/kg/injection, schedule: Q01DX001 (ip), vehicle: water 101 % of control | dose: 200.0 mg/kg/injection, schedule: Q01DX001 (ip), vehicle: water 102 % of control

CC1CCC(=C(c2ccccc2)c2ccccc2)C(C)N1C (centres undefined)
inactive: [4] 98 % of control | dose: 25.0 mg/kg/injection, schedule: Q04DX003 (ip), vehicle: saline with Tween-80 107 % of control | [5] 98 % of control | [6] 96 % of control | [7] 90 % of control | [8] 98 % of control and 101 % of control

O=S(=O)(NOCCCCONS(=O)(=O)c1ccccc1)c1ccccc1
inactive: dose: 100.0 mg/kg/injection, schedule: Q01DX001 (ip), vehicle: saline with Tween-80 88 % of control | dose: 200.0 mg/kg/injection, schedule: Q01DX001 (ip), vehicle: saline with Tween-80 95 % of control | dose: 400.0 mg/kg/injection, schedule: Q01DX001 (ip), vehicle: saline with Tween-80 97 % of control

N#Cc1ccc(O)cc1
inactive: dose: 100.0 mg/kg/injection, schedule: Q01DX005 (ip), vehicle: Klucel (hydroxypropylcellulose) (HPC) 105 % of control | [9] 99 % of control | dose: 100.0 mg/kg/injection, schedule: Q04DX002 (ip), vehicle: Klucel (hydroxypropylcellulose) (HPC) 106 % of control | dose: 200.0 mg/kg/injection, schedule: Q01DX005 (ip), vehicle: Klucel (hydroxypropylcellulose) (HPC) 105 % of control | [10] 96 % of control | dose: 200.0 mg/kg/injection, schedule: Q04DX002 (ip), vehicle: Klucel (hydroxypropylcellulose) (HPC) 117 % of control | dose: 400.0 mg/kg/injection, schedule: Q01DX005 (ip), vehicle: Klucel (hydroxypropylcellulose) (HPC) 108 % of control | dose: 400.0 mg/kg/injection, schedule: Q04DX002 (ip), vehicle: Klucel (hydroxypropylcellulose) (HPC) 87 % of control

Nc1ccccc1N=Cc1cc(F)ccc1[N+](=O)[O-]
inactive: dose: 100.0 mg/kg/injection, schedule: Q04DX003 (ip), vehicle: other 97 % of control | dose: 200.0 mg/kg/injection, schedule: Q04DX003 (ip), vehicle: other 102 % of control | dose: 400.0 mg/kg/injection, schedule: Q04DX003 (ip), vehicle: other 114 % of control

CC1(c2ccccc2)OCC(CCl)O1 (centres undefined)
inactive: dose: 222.0 mg/kg/injection, schedule: Q01DX Z (ip), vehicle: saline 95 % of control | dose: 333.0 mg/kg/injection, schedule: Q01DX Z (ip), vehicle: saline 95 % of control | dose: 500.0 mg/kg/injection, schedule: Q01DX Z (ip), vehicle: saline 91 % of control

CC(=O)Nc1ccc(C)c2ccccc12
inactive: [6] 116 % of control | [8] 100 % of control | dose: 200.0 mg/kg/injection, schedule: Q04DX003 (ip), vehicle: saline with Tween-80 100 % of control | dose: 400.0 mg/kg/injection, schedule: Q04DX003 (ip), vehicle: saline with Tween-80 96 % of control

CCOC(=O)Nc1ccccc1C
inactive: [11] 95 % of control | [12] 100 % of control | dose: 222.0 mg/kg/injection, schedule: Q01DX Z (ip), vehicle: methylcellulose (MC) 101 % of control | dose: 333.0 mg/kg/injection, schedule: Q01DX Z (ip), vehicle: methylcellulose (MC) 101 % of control | [13] 94 % of control

CCCC(C(=O)OCC)C(=O)c1ccccc1 (centres undefined)
inactive: [11] 95 % of control | [12] 98 % of control | [13] 92 % of control

Nc1ccc(C(=O)CC(O)(C(F)(F)F)C(F)(F)F)cc1
inactive: [4] 92 % of control | [5] 94 % of control | [7] 100 % of control and 92 % of control | dose: 200.0 mg/kg/injection, schedule: Q01DX009 (ip), vehicle: saline with Tween-80 95 % of control

O=C(O)C(CO)c1ccc(F)cc1 (centres undefined)
inactive: dose: 100.0 mg/kg/injection, schedule: Q01DX001 (ip), vehicle: carboxymethylcellulose (CMC) 108 % of control | dose: 200.0 mg/kg/injection, schedule: Q01DX001 (ip), vehicle: carboxymethylcellulose (CMC) 106 % of control | dose: 400.0 mg/kg/injection, schedule: Q01DX001 (ip), vehicle: carboxymethylcellulose (CMC) 108 % of control

CCCCC(CCCC)(C(=O)OCC)C(=O)OCC
inactive: [1] 94 % of control | [11] 96 % of control | [2] 94 % of control | [12] 105 % of control | [3] 94 % of control | [13] 91 % of control

CC[N+](C)(CC)CCCN1C(=O)c2ccccc2S1(=O)=O
inactive: dose: 22.0 mg/kg/injection, schedule: Q01DX Z (ip), vehicle: methylcellulose (MC) 94 % of control | dose: 33.0 mg/kg/injection, schedule: Q01DX Z (ip), vehicle: methylcellulose (MC) 96 % of control | dose: 50.0 mg/kg/injection, schedule: Q01DX Z (ip), vehicle: methylcellulose (MC) 91 % of control

SC1(S)CN2CCC1CC2
inactive: dose: 6.25 mg/kg/injection, schedule: Q01DX009 (ip), vehicle: saline 96 % of control | dose: 6.25 mg/kg/injection, schedule: Q04DX003 (ip), vehicle: saline 105 % of control | dose: 12.5 mg/kg/injection, schedule: Q01DX009 (ip), vehicle: saline 94 % of control | dose: 12.5 mg/kg/injection, schedule: Q04DX003 (ip), vehicle: saline 91 % of control | dose: 25.0 mg/kg/injection, schedule: Q04DX003 (ip), vehicle: saline 93 % of control

COc1ccc(/C=N/NC(=O)c2ccccc2O)cc1
inactive: [9] 98 % of control | [10] 96 % of control | dose: 400.0 mg/kg/injection, schedule: Q01DX009 (ip), vehicle: Klucel (hydroxypropylcellulose) (HPC) 112 % of control

O=C1OCOC1C1OCOC1=O (centres undefined)
inactive: dose: 55.0 mg/kg/injection, schedule: Q01DX Z (ip), vehicle: methylcellulose (MC) 119 % of control | dose: 83.0 mg/kg/injection, schedule: Q01DX Z (ip), vehicle: methylcellulose (MC) 104 % of control | dose: 125.0 mg/kg/injection, schedule: Q01DX Z (ip), vehicle: methylcellulose (MC) 111 % of control

Clc1nc2ccccc2nc1CI
inactive: dose: 6.25 mg/kg/injection, schedule: Q01DX009 (ip), vehicle: Klucel (hydroxypropylcellulose) (HPC) 94 % of control | dose: 12.5 mg/kg/injection, schedule: Q01DX009 (ip), vehicle: Klucel (hydroxypropylcellulose) (HPC) 102 % of control | [4] 89 % of control | dose: 25.0 mg/kg/injection, schedule: Q04DX003 (ip), vehicle: Klucel (hydroxypropylcellulose) (HPC) 102 % of control | dose: 50.0 mg/kg/injection, schedule: Q04DX003 (ip), vehicle: Klucel (hydroxypropylcellulose) (HPC) 90 % of control

Clc1ccc(CSSCc2ccc(Cl)cc2Cl)c(Cl)c1
inactive: dose: 100.0 mg/kg/injection, schedule: Q04DX002 (ip), vehicle: gum acacia 95 % of control | dose: 200.0 mg/kg/injection, schedule: Q04DX002 (ip), vehicle: gum acacia 116 % of control | dose: 400.0 mg/kg/injection, schedule: Q04DX002 (ip), vehicle: gum acacia 100 % of control
